Laboratory results taken from patent publication US9579401B2, “Staining composition” (Medical Technology Transfer Holding B.V., priority 2010, dated 2017).

Test: Stability of trypan blue and brilliant blue G in polymer solutions, 70° C. for 7 days, absorbance spectra
Settings: 0.025% (w/v)

- stability of brilliant blue G (difference absorbance spectra) (4% (w/v) PEG Mw≈3350): excellent solvent
- stability of brilliant blue G (difference absorbance spectra) (PVA Mw≈13,000-23,000): much less stable
SMILES: CCOc1ccc(Nc2ccc(/C(=C3C=C/C(=[N+](/CC)Cc4cccc(S(=O)(=O)[O-])c4)C=C/3C)c3ccc(N(CC)Cc4cccc(S(=O)(=O)[O-])c4)cc3C)cc2)cc1.[Na+] [brilliant blue G]
